Measured values reported in patent US5686486A, “4-hydroxy-benzopyran-2-ones and 4-hydroxy-cycloalkyl[b]pyran-2-ones useful to treat retroviral infections” (priority 1995, dated 1997).
pKi: −log10 of the molar value.

How the values were obtained:
HIV-1 protease [1] = target: T1, HIV-1 protease (Human immunodeficiency virus type 1 group M subtype B, UniProt P04585); assay: biochemical; details: for inhibition at 0.37 µM: read-out: HIV-1 Protease % Inhib, dose 0.370 uM; for inhibition at 1.1 µM: read-out: HIV-1 Protease % Inhib, dose 1.100 uM; for inhibition at 3.3 µM: read-out: HIV-1 Protease % Inhib, dose 3.300 uM; for inhibition at 10 µM: read-out: HIV-1 Protease % Inhib, dose 10.000 uM; for inhibition at 30 µM: read-out: HIV-1 Protease % Inhib, dose 30.000 uM; for inhibition at 0.123 µM: read-out: HIV-1 Protease % Inhib, dose 0.123 uM
Procedure, shortened: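 Percent inhibition derived from fluorescent cleavage product separated by filtration after streptavidin-bead capture of intact biotin/FITC substrate. Reaction: enzyme (10 μl, 0.1 μM stock) with substrate (20 μl, 0.2 μM stock) and compound, 1 h at room temperature in dark, pH 5.5 acetate buffer with 1.0 M NaCl and 0.05% NP-40.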

HIV-1 protease [2] = target: T1, HIV-1 protease; assay: biochemical; details: read-out: HIV-1 FITC KI
Procedure, shortened: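 Enzyme (40 nM stock) and substrate (200 μM stock) incubated with inhibitor, 24–48 two-fold serial concentrations, for 90 min at room temperature, then quenched with avidin beads. Nonlinear least-squares analysis gives Ki; a known-Ki inhibitor validates each run.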

Compound | inhibition at 0.37 µM (HIV-1 protease [1]) [%] | inhibition at 1.1 µM (HIV-1 protease [1]) [%] | inhibition at 3.3 µM (HIV-1 protease [1]) [%] | inhibition at 10 µM (HIV-1 protease [1]) [%] | inhibition at 30 µM (HIV-1 protease [1]) [%] | pKi (HIV-1 protease [2]) | inhibition at 0.123 µM (HIV-1 protease [1]) [%] | HIV-1 Protease % Inhib (HIV-1 protease [1]; dose 1.100 uM) [%] | HIV-1 Protease % Inhib (HIV-1 protease [1]; dose 3.300 uM) [%] | HIV-1 Protease % Inhib (HIV-1 protease [1]; dose 10.000 uM) [%] | HIV-1 Protease % Inhib (HIV-1 protease [1]; dose 30.000 uM) [%] | HIV-1 Protease % Inhib (HIV-1 protease [1]; dose 0.123 uM) [%]
CC(C)CCC1CCCCc2c1oc(=O)c(C(c1ccccc1)C1CC1)c2O (stereo not shown) [Example 184, 3-(Cyclopropylphenylmethyl)-6,7,8,9-tetrahydro4-hydroxy-9-(3-methylbutyl)-cyclohepta[b]pyran-2(5H)-one] | 18 | 60.7 | 86 | 96.5 | 93.1 | 7.34 |  |  |  |  |  | 
CCC1CCCCc2c1oc(=O)c(C(c1ccccc1)C1CC1)c2O (stereo not shown) [Example 185, 3-(Cyclopropylphenylmethyl)-9-ethyl-6,7,8,9-tetrahydro-4-hydroxy-cyclohepta[b]pyran-2(5H)-one] | 40.3 | 71.5 | 92.6 | 97.6 | 91.8 | 7.66 | 18.7 |  |  |  |  | 
CCCC1CCCCc2c1oc(=O)c(C(c1ccccc1)C1CC1)c2O (stereo not shown) [Example 188, 3-(Cyclopropylphenylmethyl)-6,7,8,9-tetrahydro-4-hydroxy-9-propyl-cyclohepta[b]pyran-2(5H)-one] | 57 | 82.2 | 88.4 | 88.3 | 84.5 | 7.59 | 27.3 |  |  |  |  | 
O=c1oc2c(c(O)c1C(c1ccccc1)C1CC1)CCCCC2CC1CCCO1 (stereo not shown) [Example 189, 3-(Cyclopropylphenylmethyl)-6,7,8,9-tetrahydro4-hydroxy-9-[(tetrahydro-2-furanyl)methyl]-cyclohepta[b]pyran-2(5H)-one] | 37.6 | 69.8 | 89.3 | 98.1 | 99.3 | 7.44 | 15.7 |  |  |  |  | 
COCCC1CCCCc2c1oc(=O)c(C(c1ccccc1)C1CC1)c2O (stereo not shown) [Example 194, 3-(Cyclopropylphenylmethyl)-6,7,8,9-tetrahydro4-hydroxy-9-(2-methoxyethyl)-cyclohepta[b]pyran-2(5H)-one] | 39.7 |  |  |  |  | 7.55 |  | 81.89 | 102.84 | 108.17 | 107.45 | 
O=c1oc2c(c(O)c1C(c1ccccc1)C1CC1)CCCCC2C(O)C1CC1 (stereo not shown) [Example 195, 9-(Cyclopropylhydroxymethyl)-3-(cyclopropylphenylmethyl)-6,7,8,9-tetrahydro-4-hydroxy-cyclohepta[b]pyran-2(5H)-one] | 23.5 | 71.4 | 90.8 | 108 | 117 | 7.66 |  |  |  |  |  | 
CC(C)(C)OC(=O)NCCC(=O)Nc1cccc(C(c2c(O)c3c(oc2=O)CCCCCC3)C2CC2)c1 (stereo not shown) [Example 196, Carbamic acid, [3-[[3-[cyclopropyl(5,6,7,8,9,10-hexahydro-4-hydroxy-2-oxo-2H-cycloocta[b]pyran-3-yl)methyl]phenyl]amino]-3-oxopropyl]-, 1,1-dimethylethyl ester] | 81.2 | 91.8 | 97.9 | 105 | 95.8 | 8.52 | 68 |  |  |  |  | 
O=C(CCn1ccc2ccccc21)Nc1cccc(C(c2c(O)c3c(oc2=O)CCCCCC3)C2CC2)c1 (stereo not shown) [Example 197, 1H-Indole-1-propanamide, N-[3-[cyclopropyl(5,6,7,8,9,10-hexahydro-4-hydroxy-2-oxo-2H-cycloocta[b]pyran-3-yl)methyl]phenyl]-] | 65.6 | 76.6 | 88.7 | 91.8 | 89.6 | 7.85 | 34 |  |  |  |  | 
Cc1ccc(S(=O)(=O)n2cncc2C[C@H](NC(=O)OC(C)(C)C)C(=O)Nc2cccc(C(c3c(O)c4c(oc3=O)CCCCCC4)C3CC3)c2)cc1 (stereo partly drawn) [Example 199, Carbamic acid, [2-[[3-[cyclopropyl(5,6,7,8,9,10-hexahydro-4-hydroxy-2-oxo-2H-cycloocta[b]pyran-3-yl)methyl]phenyl]amino]-1-[[1-(S)-[(4-methylphenyl)sulfonyl]-1H-imidazol-5-yl]methyl]-2-oxoethyl]-, 1,1-dimethylethyl ester] | 86.5 | 97.6 | 106 | 114 | 107 | 7.98 | 56 |  |  |  |  | 
CC(C)(C)OC(=O)NCC(=O)Nc1cccc(C(c2c(O)c3c(oc2=O)CCCCCC3)C2CC2)c1 (stereo not shown) [Example 200, Carbamic acid, [2-[[3-[cyclopropyl(5,6,7,8,9,10-hexahydro-4-hydroxy-2-oxo-2H-cycloocta[b]pyran-3-yl)methyl]phenyl]amino]-2-oxyethyl]-, 1,1-dimethylethyl ester] | 88.5 | 90.9 | 103 | 105 | 99.1 | 8.54 | 64.6 |  |  |  |  | 
O=C(CCN1CCCCC1)Nc1cccc(C(c2c(O)c3c(oc2=O)CCCCCC3)C2CC2)c1 (stereo not shown) [Example 205, 1-Piperidinepropanamide, N-[3-[cyclopropyl(5,6,7,8,9,10-hexahydro4-hydroxy-2-oxo-2H-cycloocta[b]pyran-3-yl)methyl]phenyl]-] | 56.4 | 76.6 | 94.2 | 109 | 104 | 7.58 | 12.6 |  |  |  |  | 
O=C(Cc1ccccc1)Nc1cccc(C(c2c(O)c3c(oc2=O)CCCCCC3)C2CC2)c1 (stereo not shown) [Example 207, N-[3-[Cyclopropyl(5,6,7,8,9,10-hexahydro-4-hydroxy-2-oxo-2H-cycloocta[b]pyran-3-yl)methyl]phenyl]-benzacetamide] | 44.1 | 74 | 93.8 | 83 | 78.7 | 7.48 | 14 |  |  |  |  | 
CCCC(=O)Nc1cccc(C(c2c(O)c3c(oc2=O)CCCCCC3)C2CC2)c1 (stereo not shown) [Example 209, N-[3-[Cyclopropyl(5,6,7,8,9,10-hexahydro-4-hydroxy-2-oxo-2H-cycloocta[b]pyran-3-yl)methyl]phenyl]-butanamide] | 43.2 | 80 | 96 | 104 | 100 | 7.62 |  |  |  |  |  | 
O=C(Nc1cccc(C(c2c(O)c3c(oc2=O)CCCCCC3)C2CC2)c1)c1ccc(F)cc1 (stereo not shown) [Example 210, Benzamide, N-[3-[cyclopropyl(5,6,7,8,9,10-hexahydro4-hydroxy-2-oxo-2H-cycloocta[b]pyran-3-yl)methyl]phenyl]-4-fluoro-] | 31.5 | 58.1 | 77.6 | 88.8 | 97.3 | 7.26 | 19.7 |  |  |  |  | 
O=C(Nc1cccc(C(c2c(O)c3c(oc2=O)CCCCCC3)C2CC2)c1)c1ccccc1 (stereo not shown) [Example 211, Benzamide, N-[3-[cyclopropyl(5,6,7,8,9,10-hexahydro-4-hydroxy-2-oxo-2H-cycloocta[b]pyran-3-yl)methyl]phenyl]] | 37.2 | 64.5 | 89.6 | 101 | 101 | 7.38 |  |  |  |  |  | 
CC(C)(C)OC(=O)N[C@@H](Cc1c[nH]cn1)C(=O)Nc1cccc(C(c2c(O)c3c(oc2=O)CCCCCC3)C2CC2)c1 (stereo partly drawn) [Example 213, Carbamic acid, [2-[[3-[cyclopropyl(5,6,7,8,9,10-hexahydro-4-hydroxy-2-oxo-2H-cycloocta[b]pyran-3-yl)methyl]phenyl]amino]-1-(S)-(1H-imidazol-4-ylmethyl)-2-oxoethyl]-, 1,1-dimethylethyl ester] | 82.2 | 94.5 | 102 | 109 | 99.3 | 8.46 |  |  |  |  |  | 74.4
CC(C)(C)OC(=O)NCCC(=O)Nc1cccc(C(c2c(O)c3c(oc2=O)CCCCC3)C2CC2)c1 (stereo not shown) [Example 214, Carbamic acid. [3-[[3-[cyclopropyl(2,5,6,7,8,9-hexahydro-4-hydroxy-2-oxocyclohepta[b]pyran-3-yl)methyl]phenyl]amino]-3-oxopropyl]-, 1,1-dimethylethyl ester] | 54 | 74.1 | 88.6 | 95.2 | 96.2 | 7.71 | 18.7 |  |  |  |  | 
O=C(CCn1ccc2ccccc21)Nc1cccc(C(c2c(O)c3c(oc2=O)CCCCC3)C2CC2)c1 (stereo not shown) [Example 215, 1H-Indole-1-propanamide, N-[3-[cyclopropyl(2,5,6,7,8,9-hexahydro-4-hydroxy-2-oxocyclohepta[b]pyran-3-yl)methyl]phenyl]-] | 43.3 | 76.1 | 97.9 | 107 | 98.5 | 7.56 | 13.5 |  |  |  |  | 
